Reference: ChEMBL document CHEMBL1201862, “PubChem BioAssay data set” (2004)
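Briefly, cells in 96-well plates were exposed to five compound concentrations for 48 h, and endpoints were estimated by linear interpolation. GI50 is the concentration that inhibits growth by half.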 The source made the active and inactive calls. Rule as the data show it: active = GI50 up to about 1.1 µM and inactive = higher.

Columns and labels:
Assay in all cases: NCI tumour cell line growth inhibition, 48 h
CCRF-CEM = system: CCRF-CEM
HCT-116 = system: HCT-116
HCT-15 = system: HCT-15
HOP-62 = system: HOP-62
Hs-578T = system: Hs-578T
MDA-MB-231 = system: MDA-MB-231
MDA-N = system: MDA-N
Malme-3M = system: Malme-3M
NCI-H23 = system: NCI-H23
OVCAR-5 = system: OVCAR-5
PC-3 = system: PC-3
SF-268 = system: SF-268
SK-MEL-28 = system: SK-MEL-28
SK-MEL-2 = system: SK-MEL-2
SN12C = system: SN12C
SW-620 = system: SW-620
T47D = system: T47D
K562 = system: K562
RPMI-8226 = system: RPMI-8226
SR = system: SR

| SMILES | GI50 (CCRF-CEM) | GI50 (HCT-116) | GI50 (HCT-15) | GI50 (HOP-62) | GI50 (Hs-578T) | GI50 (MDA-MB-231) | GI50 (MDA-N) | GI50 (Malme-3M) | GI50 (NCI-H23) | GI50 (OVCAR-5) | GI50 (PC-3) | GI50 (SF-268) | GI50 (SK-MEL-28) | GI50 (SK-MEL-2) | GI50 (SN12C) | GI50 (SW-620) | GI50 (T47D) | GI50 (K562) | GI50 (RPMI-8226) | GI50 (SR) |
| --- | --- | --- | --- | --- | --- | --- | --- | --- | --- | --- | --- | --- | --- | --- | --- | --- | --- | --- | --- | --- |
| CCn1c2ccccc2c2cc(/N=N\c3ccc(C#N)cc3)ccc21 | > 100 µM (inactive) | 50.4 µM (inactive) | > 100 µM | 28 µM (inactive) | 42.1 µM (inactive) | 17 µM (inactive) | 69.5 µM (inactive) | 18.7 µM (inactive) | 23.5 µM (inactive) | 31.6 µM (inactive) | > 100 µM (inactive) | 54.7 µM (inactive) | > 100 µM (inactive) | > 100 µM (inactive) | > 100 µM (inactive) | > 100 µM (inactive) | 50.6 µM (inactive) | – | – | – |
| Cc1nc(C)c(C(=O)NNC(=O)Cc2ccccc2)cc1C(=O)NNC(=O)Cc1ccccc1 | > 100 µM (inactive) | > 100 µM (inactive) | > 100 µM | > 100 µM (inactive) | > 100 µM (inactive) | > 100 µM (inactive) | > 100 µM (inactive) | – | > 100 µM (inactive) | > 100 µM (inactive) | > 100 µM (inactive) | > 100 µM (inactive) | – | > 100 µM (inactive) | > 100 µM (inactive) | > 100 µM (inactive) | > 100 µM (inactive) | > 100 µM (inactive) | > 100 µM (inactive) | – |
| N#CC1C(=O)NC(=O)C(C#N)C1c1ccc(Cl)c(Cl)c1 (stereo not given) | 13.6 µM (inactive) | 13.9 µM (inactive) | 21.5 µM | 20.4 µM (inactive) | 23.1 µM (inactive) | < 0.01 µM (active) | – | > 100 µM (inactive) | 21.4 µM (inactive) | 23.4 µM (inactive) | 28.2 µM (inactive) | 34.8 µM (inactive) | 30.6 µM (inactive) | 80.2 µM (inactive) | < 0.01 µM (active) | 16.7 µM (inactive) | 33.3 µM (inactive) | 28.8 µM (inactive) | – | 18.2 µM (inactive) |
| COC(=O)C1=C(C(=O)OC)SC2(S1)C(C(=O)OC)=C(C(=O)OC)Sc1c2ss/c1=N/C(C)(C)C | 0.345 µM (active) | 0.769 µM (active) | 0.622 µM | 3.72 µM (inactive) | 4.32 µM (inactive) | 1.64 µM (inactive) | – | 2.18 µM (inactive) | 2.23 µM (inactive) | 1.87 µM (inactive) | 1.26 µM (inactive) | 1.86 µM (inactive) | 2.07 µM (inactive) | 1.34 µM (inactive) | 1.22 µM (inactive) | 0.622 µM (active) | 1.41 µM (inactive) | 2.21 µM (inactive) | – | 0.366 µM (active) |
| Cc1nc(OCc2ccccc2)c2ncn(CCO)c2n1 | > 100 µM (inactive) | > 100 µM (inactive) | – | – | > 100 µM (inactive) | > 100 µM (inactive) | > 100 µM (inactive) | – | > 100 µM (inactive) | > 100 µM (inactive) | > 100 µM (inactive) | > 100 µM (inactive) | > 100 µM (inactive) | > 100 µM (inactive) | > 100 µM (inactive) | > 100 µM (inactive) | – | – | > 100 µM (inactive) | > 100 µM (inactive) |
| Cc1cccc2nc3c(=O)[nH]c(=O)nc-3n(C)c12 | 28.6 µM (inactive) | 30.4 µM (inactive) | 52.8 µM | 79.6 µM (inactive) | 86.9 µM (inactive) | > 100 µM (inactive) | 62.1 µM (inactive) | 21.3 µM (inactive) | 39.1 µM (inactive) | > 100 µM (inactive) | 66.7 µM (inactive) | 50.4 µM (inactive) | > 100 µM (inactive) | 48.8 µM (inactive) | > 100 µM (inactive) | 39.9 µM (inactive) | 53.3 µM (inactive) | 46.6 µM (inactive) | 29.7 µM (inactive) | – |
| O=[N+]([O-])c1ccc(NS(=O)(=O)C(F)(F)F)cc1 | 92.9 µM (inactive) | > 100 µM (inactive) | > 100 µM | > 100 µM (inactive) | > 100 µM (inactive) | > 100 µM (inactive) | > 100 µM (inactive) | – | > 100 µM (inactive) | > 100 µM (inactive) | > 100 µM (inactive) | > 100 µM (inactive) | > 100 µM (inactive) | > 100 µM (inactive) | > 100 µM (inactive) | > 100 µM (inactive) | > 100 µM (inactive) | – | – | – |
| [N-]=[N+]=NC1(c2ccccc2)C(=O)c2cccc3c4ccccc4n(c23)C1=O (stereo not given) | 64.3 µM (inactive) | 84.3 µM (inactive) | > 100 µM | > 100 µM (inactive) | > 100 µM (inactive) | > 100 µM (inactive) | 34.4 µM (inactive) | > 100 µM (inactive) | 52.2 µM (inactive) | > 100 µM (inactive) | > 100 µM (inactive) | > 100 µM (inactive) | > 100 µM (inactive) | > 100 µM (inactive) | > 100 µM (inactive) | > 100 µM (inactive) | > 100 µM (inactive) | – | 45.3 µM (inactive) | – |
| CC(C)OP(=O)(c1ccccc1)c1ccc2c(c1)OCCOCCOCCOCCO2 (stereo not given) | > 100 µM (inactive) | > 100 µM (inactive) | > 100 µM | > 100 µM (inactive) | > 100 µM (inactive) | > 100 µM (inactive) | > 100 µM (inactive) | > 100 µM (inactive) | > 100 µM (inactive) | – | > 100 µM (inactive) | > 100 µM (inactive) | > 100 µM (inactive) | – | > 100 µM (inactive) | > 100 µM (inactive) | > 100 µM (inactive) | > 100 µM (inactive) | > 100 µM (inactive) | – |
| COc1ccc(-n2c(-c3ccccc3)cc(-c3cccs3)c2-c2cccs2)cc1 | 0.0818 µM (active) | > 100 µM (inactive) | > 100 µM | > 100 µM (inactive) | > 100 µM (inactive) | 10.1 µM (inactive) | – | – | 6.73 µM (inactive) | > 100 µM (inactive) | – | > 100 µM (inactive) | > 100 µM (inactive) | – | > 100 µM (inactive) | > 100 µM (inactive) | 26.5 µM (inactive) | – | > 100 µM (inactive) | > 100 µM (inactive) |
| CSCC[C@H]1C(=O)N=C(N)N1C(=O)OCc1ccccc1 | – | 17.6 µM (inactive) | 28.6 µM | > 100 µM (inactive) | 18 µM (inactive) | 66.5 µM (inactive) | 28.9 µM (inactive) | 33.3 µM (inactive) | 17.1 µM (inactive) | > 100 µM (inactive) | 50.4 µM (inactive) | 38.4 µM (inactive) | 24.2 µM (inactive) | > 100 µM (inactive) | 31 µM (inactive) | 17.1 µM (inactive) | – | 21.8 µM (inactive) | 60 µM (inactive) | 17.8 µM (inactive) |
| NC(=O)Cn1c(=O)oc2cc(C(=O)CN3CCOCC3)ccc21 | > 100 µM (inactive) | > 100 µM (inactive) | – | > 100 µM (inactive) | > 100 µM (inactive) | > 100 µM (inactive) | > 100 µM (inactive) | > 100 µM (inactive) | – | > 100 µM (inactive) | > 100 µM (inactive) | > 100 µM (inactive) | > 100 µM (inactive) | > 100 µM (inactive) | > 100 µM (inactive) | > 100 µM (inactive) | – | > 100 µM (inactive) | > 100 µM (inactive) | > 100 µM (inactive) |
